For 24 molecules, relative leaf area (% of untreated control) and change in vivo results are on record in US20150289512A1, “METHOD FOR PROMOTING PLANT GROWTH” (SUMITOMO CHEMICAL COMPANY, LIMITED, priority 2012, published 2015).

A value given as a limit tells only on which side of the number the result lay.

The test system of one test is Nicotiana benthamiana. The test can be described thus: Test Example 5: growth promotion under low-temperature stress by hydroponics of Nicotiana benthamiana, 1 ppm. In kind it is in vivo. The note with it: 1 ppm in medium, low-temperature stress 7 days at 1.5±1.0° C., green leaf area 3 days later, equation (1). The gist of the method: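 Seeds were grown in half-strength Murashige–Skoog medium (pH 5.8) containing 1 ppm compound for 7 days at 22 °C, then chilled 7 days at 1.5±1.0 °C and recovered 3 days at 22 °C. Green leaf area was imaged. Relative leaf area = 100×(treated − untreated)/(unstressed untreated − stressed untreated).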
In turn, `COC(=O)c1nc2cc(C(F)(F)F)ccc2o1` [Compound 17, methyl 5-trifluoromethylbenzoxazole-2-carboxylate] returned a relative leaf area (% of untreated control) at 1 ppm not below 5%. The same measure, in the same setting: then `Cc1c(C(=O)O)oc2ccc(C(F)(F)F)cc12` [Compound 34], with not below 5%; and `Cc1c(C(=O)O)oc2ccccc12` [Compound 36], with not below 5%. Still for that read-out and setting: then `COC(=O)c1oc2ccccc2c1C` [Compound 37], with not below 5%.

The molecule `NC(=O)c1cc2cc(C(F)(F)F)ccc2o1` [Compound 51] had a relative leaf area (% of untreated control) at 1 ppm not below 5%. `CNC(=O)c1cc2cc(C(F)(F)F)ccc2o1` [Compound 52]: the relative leaf area (% of untreated control) at 1 ppm is not below 5%. Molecule `O=C(Nc1ccccc1)c1cc2cc(C(F)(F)F)ccc2o1` [Compound 53] gave a relative leaf area (% of untreated control) at 1 ppm not below 5%. `O=C(Oc1ccccc1)c1cc2cc(C(F)(F)F)ccc2o1` [Compound 55] displayed a relative leaf area (% of untreated control) at 1 ppm not below 5%.

`O=C(OCc1ccccc1)c1cc2cc(C(F)(F)F)ccc2o1` [Compound 56] gave a relative leaf area (% of untreated control) at 1 ppm not below 5%. `COC(=O)c1oc2ccc(C(F)(F)F)cc2c1N(C(C)=O)C(C)=O` [Compound 64] returned a relative leaf area (% of untreated control) at 1 ppm not below 5%. Molecule `COC(=O)c1oc2ccc(C(F)(F)F)cc2c1NC(=O)C(F)(F)F` [Compound 65] displayed a relative leaf area (% of untreated control) at 1 ppm not below 5%. In turn, `COC(=O)c1oc2ccc(C(F)(F)F)cc2c1NS(=O)(=O)c1ccccc1` [Compound 68] had a relative leaf area (% of untreated control) at 1 ppm not below 5%. For `O=C(O)c1oc2ccc(C(F)(F)F)cc2c1C(F)(F)F` [Compound 69], the relative leaf area (% of untreated control) at 1 ppm is not below 5%. Regarding `COC(=O)c1oc2ccc(C(F)(F)F)cc2c1C(F)(F)F` [Compound 70], the relative leaf area (% of untreated control) at 1 ppm was not below 5%. As for `NC(=O)c1oc2ccc(C(F)(F)F)cc2c1C(F)(F)F` [Compound 74], the relative leaf area (% of untreated control) at 1 ppm is not below 5%. The molecule `O=C(NCc1ccccc1)c1oc2ccc(C(F)(F)F)cc2c1C(F)(F)F` [Compound 77] showed a relative leaf area (% of untreated control) at 1 ppm not below 5%.

With `O=C(O)c1oc2ccccc2c1C(F)(F)F` [Compound 82], the relative leaf area (% of untreated control) at 1 ppm is not below 5%. On the same count and under the same terms, then `COC(=O)c1oc2ccccc2c1C(F)(F)F` [Compound 83], with not below 5%. Turning to `O=C(O)c1nc2c(F)cc(F)cc2s1` [Compound 86], the relative leaf area (% of untreated control) at 1 ppm was not below 5%.

The subject of the next test is Corn seeds (variety: Pioneer 120 31P41). As to the kind of experiment: Test Example 14: growth promotion under low-temperature stress by soil drench treatment of corn. In kind it is in vivo. The note with it: Zea mays, 120 h; soil drench 20 ml, concentration tested 3 ppm; low-temperature stress 5 days at 2.5° C.; health score 0-5, average of 4 individuals; read-out: Relative value of score (%- untreated control plot). The gist of the method:
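7-day-old corn seedlings soil-drenched with 20 ml compound solution (from 1,000× DMSO stock in water; control 0.1% DMSO), grown 2 days at 27 °C, then 5 days at 2.5 °C, then 4 days recovery at 27 °C. Health scored 1–5 by number of leaves ≥⅔ healthy; mean of 4 plants.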
With `COC(=O)c1nc2cc(C(F)(F)F)ccc2o1` [Compound 17, methyl 5-trifluoromethylbenzoxazole-2-carboxylate], the change in vivo at 3 ppm was more than 5%.

The test is the same for the next values; noted with them: Zea mays, 120 h; soil drench 20 ml, concentration tested 10 ppm; low-temperature stress 5 days at 2.5° C.; health score 0-5, average of 4 individuals; read-out: Relative value of score (%- untreated control plot).
In the case of `COC(=O)c1cc2ccccc2o1` [Compound 1], the change in vivo at 10 ppm was more than 5%. With `COC(=O)c1cc2cc(C(F)(F)F)ccc2o1` [Compound 3, methyl 5-(trifluoromethyl)benzofuran-2-carboxylate], the change in vivo at 10 ppm was more than 5%. On to `Cc1c(C(=O)O)oc2ccc(C(F)(F)F)cc12` [Compound 34], for which the change in vivo at 10 ppm was more than 5%. For `COC(=O)c1cc2c(C(F)(F)F)cccc2o1` [Compound 45], the change in vivo at 10 ppm was more than 5%. In the case of `COC(=O)c1oc2ccc(C(F)(F)F)cc2c1O` [Compound 50], the change in vivo at 10 ppm was more than 5%. Consider `O=C(O)c1oc2ccccc2c1C(F)(F)F` [Compound 82], for which the change in vivo at 10 ppm was more than 5%.

Regarding `NC(=O)c1oc2ccccc2c1C(F)(F)F` [Compound 85], the change in vivo at 10 ppm was more than 5%.
